According to patent US6455593B1, “Method of dynamic retardation of cell cycle kinetics to potentiate cell damage” (priority 1995, dated 2002):

Legend:
[1] = tested on: p34^cdc2, c-myc, JNK, Erk-2; test: Immunoblot and kinase activity assays (CDC2, c-myc, MAP kinases); assay type: cell-based, human; conditions: U937, STSP ±dThd or dThd alone
Text: The cyclin-dependent kinase p34^cdc2 was detected with antibody clone #1 from Signal Transduction Laboratories. For detection of histone phosphorylation activity p34^cdc2 was immunoprecipitated with monoclonal antibody (Santa Cruz, #17) using protein A sepharose and reacted with H1 substrate (Boehringer Mannheim) in the presence of γ^32P-ATP Aersham). […] MAP kinases were detected by immnunoblotting with monoclonal antibodies from Pharmingen (San Diego, Calif.). For assay of enzymatic activities, MAP kinases were immunoprecipitated as above with polyclonal antibody to erk2 or with a GST-JNK substrate for JNK. The substrate for erk2 was myelin basic protein substrate and for JNK was GST-JNK (Pharmingen). The protooncogene product c-myc was detected by immunoblotting with an antibody from Oncogene Sciences.

U937 cells = test: MIS LDH release assay (CytoTox96); assay type: cell-based, human; conditions: STSP for 14 H, total 18 H, STSP nM: 100,50,25,13,6,3, r16 dThd alone
Experimental: The MIS set up was identical to that described in Example 8. The relative activity of LDH released into supernatant from each microculture well was detected by a coupled enzymatic assay, Decker et al., J. Immunol. Methods 15:61 (1988), in which the chromogen 2-(p-iodophenyl)-3-(p-nitrophenyl)-5-phenyl tetrazolium chloride (INT) is converted to a red INT-formazan product by NADH in the presence of diaphorase.
In this procedure, after incubation and at the time for assay, 50 μl of fresh medium was added to each microculture well prior to assay and microcultures in the entire 96 well plate were simultaneously sedimented at 400×G for 10 min in a Becton Dickinson refrigerated table top centrifuge using a plate carrier. A 50 μl sample from each microwell then was removed carefully and transferred to a corresponding well in a clean 96 well plate. LDH activity was quantitated by means of the CytoTox96 assay, Promega Corp., Madison, Wis. 53711, according to the manufacturers instructions. In tests to determine the total LDH in each microwell, 10 μl of lysing reagent (from the CytoTox96 assay kit) was added to the fixed 100 μl volume with cells and medium prior to the above step. […].
These formulas use […] in which positive numbers are obtained as compared to % inhibition used above. […] Particularly for the latter purpose, all of the cells in each microculture well were totally lysed with Promega lysing reagent prior to the calorimetric measurement.

## Cc1cn([C@H]2C[C@H](O)[C@@H](CO)O2)c(=O)[nH]c1=O [dThd, deoxythymidine]
[1]
  Phosphorylation of CDC2: not by dThd alone
U937 cells; dThd 0.02 mM for 4 H
  LDH release multiple, dThd 0.02 mM: 1.20
U937 cells; dThd 0.06 mM for 4 H
  LDH release multiple, dThd 0.06 mM: 1.14
U937 cells; dThd 0.09 mM for 4 H
  LDH release multiple, dThd 0.09 mM: 1.19
U937 cells; dThd 3.0 mM for 4 H
  LDH release multiple, dThd 3.0 mM: 3.61
